Assay results from patent US5066658A, “Substituted hydroxyureas” (Ortho Pharmaceutical Corporation, priority 1990, dated 1991).

Legend:
[1] = system: Arachidonate-Induced Bronchospasm (cyclooxygenase); assay: Pulmonary Mechanics Assay: arachidonate-induced bronchospasm without indomethacin (indicative of cyclooxygenase inhibition); format: in vivo, male Hartley guinea pigs; conditions: Cavia porcellus, guinea pig; for inhibition in vivo at 15 mg/kg: IV dosing, read-out: Inhibition of Arachidonate-Induced Bronchospasm (IV Dosing), % Inh. without Indomethacin
Experimental: (§1) The bronchodilating activity of the compounds was tested in a pulmonary mechanics assay. Basically, male Hartley guinea pigs (about 400-500 g) were anesthetized with urethane (2 g/kg, i.p.) and placed in a whole body Plethysmograph. Cannulations of a jugular vein and carotid artery were performed for compound administration and monitoring blood pressure, respectively. The trachea was cannulated for respiration at a constate volume via a miniature starling pump. A Validyne differential pressure transducer (±20 cm H2 O) sensed transpleural pressure via a 15 gauge needle inserted into the pleural cavity and a sidearm from the tracheal cannula. Tidal volume was sensed by another Validyne differential pressure transducer (±2 cm H2 O) from pressure changes inside the plethysmograph. An on-line Buxco pulmonary mechanics computer calculated air flow, dynamic lung compliance and lung resistance. The values were recorded on a print-out.
(§2) The guinea pigs were pretreated with succinyl choline (1.2 mg/kg, i.v.) to arrest spontaneous respiration. A control challenge of arachidonic acid (0.5-1.0 mg/kg, i.v.) was administered, and the animals were then dosed with the test compound by various routes. At least 10 minutes were allowed to expire between arachidonic acid challenges. A second challenge was given and compared to the control response. This comparison was indicative of cyclooxygenase inhibition. Indomethacin (10 mg/kg, i.v.) was administered immediately after the second challenge. A third challenge of a higher dose of arachidonic acid (5-10 mg/kg, i.v.) was given. This response was induced by SRS-A and compared to the responses elicited by a separate control group of animals. Activity was indicative of lipoxygenase inhibition. Propranolol (0.005 mg/kg. i.v.) may be given prior to the third challenge to enhance the response to SRS-A.
(§3) Bronchoconstriction induced by arachidonic acid with or without indomethacin was expressed as maximum percent change in dynamic lung compliance (Cdyn) and maximum percent increase in lung resistance (RL). Each guinea pig served as its own control for cyclooxygenase evaluation. The results are shown in Table I and are expressed as the percent inhibition of control.

5-lipoxygenase = target: T1, 5-lipoxygenase (Rattus norvegicus, UniProt P12527); assay: Inhibition of 5-lipoxygenase in cell-free homogenate of rat basophilic leukemia (RBL-1) cells; format: biochemical; conditions: RBL-1 cell-free homogenate; for inhibition at 3 µM: read-out: Inhibition of 5-Lipoxygenase, % Inh. @ 3 μM
T1 construct: The cell-free homogenate was prepared by sonication of the cells followed by centrifugation at 40,000 xg; endogenous in cells; host or cells: RBL-1 (rat basophilic leukemia) cells, 40,000 xg supernatant of the sonicate
T1 sequence (P12527 1-673): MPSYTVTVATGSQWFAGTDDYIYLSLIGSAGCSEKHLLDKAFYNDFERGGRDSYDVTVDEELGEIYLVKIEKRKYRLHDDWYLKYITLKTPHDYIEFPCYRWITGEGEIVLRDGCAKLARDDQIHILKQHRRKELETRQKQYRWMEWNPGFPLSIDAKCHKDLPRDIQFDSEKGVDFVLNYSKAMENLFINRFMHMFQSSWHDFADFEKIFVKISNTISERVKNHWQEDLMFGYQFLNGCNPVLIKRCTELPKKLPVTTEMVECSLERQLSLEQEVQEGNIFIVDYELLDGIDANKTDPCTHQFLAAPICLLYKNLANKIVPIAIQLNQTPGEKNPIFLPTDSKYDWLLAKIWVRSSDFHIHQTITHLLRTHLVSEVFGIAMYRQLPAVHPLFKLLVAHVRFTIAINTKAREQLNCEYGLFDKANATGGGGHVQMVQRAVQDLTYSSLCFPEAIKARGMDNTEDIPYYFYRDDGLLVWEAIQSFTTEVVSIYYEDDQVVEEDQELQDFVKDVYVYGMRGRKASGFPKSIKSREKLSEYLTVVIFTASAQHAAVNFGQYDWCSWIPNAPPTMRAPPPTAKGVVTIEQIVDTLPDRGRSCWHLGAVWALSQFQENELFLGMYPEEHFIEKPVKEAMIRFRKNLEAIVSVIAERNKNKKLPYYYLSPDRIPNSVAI
Experimental: The inhibition of 5-lipoxygenase was tested in a cell-free homogenate by the procedure of B. Jakschik et al., Biochem.Biophys.Res.Comm. 95, 103 (1980). Basically, rat basophilic leukemia cells (RBL-1 cells) were maintained in culture in a suitable medium, and were collected by centrifugation prior to assay. The cell-free homogenate was prepared by sonication of the cells followed by centrifugation at 40,000 xg. The CaCl2 dependent production of lipoxygenase products from ^14 C-arachidonic acid in the 40,000 xg supernatant was monitored in the presence of buffer (or other vehicle) or drug. Products were isolated by acidification and extraction, followed by thin layer chromatography. Radioactive areas corresponding to the authentic lipoxygenase products were quantitated by liquid scintillation counting. Data was reported as the IC50, the concentration causing 50% inhibition of the generation of lipoxygenase products. The results are shown it Table I as the percent inhibition at 3 μM or the amount of compound necessary to cause 50% inhibition.

[2] = system: Arachidonate-Induced Ear Edema; assay: Arachidonic Acid-Induced Ear Edema Assay; format: in vivo; conditions: topical, mouse ear; for inhibition in vivo at 0.4 mg: 400 μg topically; for inhibition in vivo at 0.4 mg / inhibition in vivo at 0.2 mg / inhibition in vivo at 0.1 mg: read-out: Inhibition of Arachidonate-Induced Ear Edema, % Inh. (μg topically); for inhibition in vivo at 0.2 mg: 200 μg topically; for inhibition in vivo at 0.1 mg: 100 μg topically
Experimental: The topical anti-inflammatory activity of a compound was determined by its ability to inhibit an experimentally-induced inflammation in the mouse ear. Basically, four milligrams of arachidonic acid in acetone were applied to the dorsal surface of one ear with a microliter pipette. The mice were sacrificed at various times after application of arachidonic acid (one-half to six hours). A section of each ear was removed with a 7 mm round punch and weighed on an electronic or analytical balance. The difference in weight between treated and untreated ears was determined. Compounds to be evaluated for anti-inflammatory activity can be incorporated directly into the irritant mixture or at various times prior to or after application of arachidonic acid.
The degree of anti-inflammatory activity is shown in Table I, and is expressed in terms of the percent inhibition of ear weight increase.

[3] = system: Arachidonate-Induced Bronchospasm (lipoxygenase); assay: Pulmonary Mechanics Assay: arachidonate-induced bronchospasm with indomethacin (SRS-A response, indicative of lipoxygenase inhibition); format: in vivo, male Hartley guinea pigs; conditions: Cavia porcellus, guinea pig; for inhibition in vivo at 15 mg/kg: IV dosing, read-out: Inhibition of Arachidonate-Induced Bronchospasm (IV Dosing), % Inh. with Indomethacin
Experimental: as §1, §2, §3

[4] = ID dosing, read-out: Inhibition of Arachidonate-Induced Bronchospasm (ID Dosing), % Inh. without Indomethacin
[5] = ID dosing, read-out: Inhibition of Arachidonate-Induced Bronchospasm (ID Dosing), % Inh. with Indomethacin

| SMILES | inhibition in vivo at 15 mg/kg [1] [%] | IC50 (5-lipoxygenase) [nM] | Inhibition of Arachidonate-Induced Ear Edema, ED50 [2] [µg] | inhibition in vivo at 0.4 mg [2] [%] | inhibition in vivo at 15 mg/kg [3] [%] | inhibition at 3 µM (5-lipoxygenase) [%] | inhibition in vivo at 0.2 mg [2] [%] | further results |
| --- | --- | --- | --- | --- | --- | --- | --- | --- |
| CCCCCCCCCCN(O)C(=O)NC [Example 2, N-Methyl-N'-decyl-N'-hydroxyurea] | 32 | 90 | 29 | 82 | 44 | – | – | – |
| CCCCCCCCCCN(O)C(=O)NCCCCCCC(=O)OC [Example 6, N-[6-(Methoxycarbonyl)hexyl]-N'-decyl-N'-hydroxyurea] | -45 | – | – | 30 | < 20 | 100 | – | – |
| CCCCCCCCCCN(O)C(=O)N(C)C [Example 11, N,N-Dimethyl-N'-decyl-N'-hydroxyurea] | 95 | 100 | 43 | 90 | 98 | – | – | inhibition in vivo at 50 mg/kg [1, 4]: 36%; inhibition in vivo at 50 mg/kg [3, 5]: -46% |
| CCCCCCCCN(O)C(=O)N(C)C [Example 7, N,N-Dimethyl-N'-octyl-N'-hydroxyurea] | 61 | 1800 | 49 | – | 41 | 77 | – | – |
| CCCCCCCCCCCCCN(O)C(=O)N(C)C [Example 14, N,N-Dimethyl-N'-tridecyl-N'-hydroxyurea] | – | – | 156 | – | – | 95 | 95 | inhibition in vivo at 50 mg/kg [1, 4]: -128%; inhibition in vivo at 50 mg/kg [3, 5]: 49% |
| CCCCCCCCCCCCCCN(O)C(=O)N(C)C [Example 15, N,N-Dimethyl-N'-tetradecyl-N'-hydroxyurea] | – | – | – | – | – | 100 | 26 | inhibition in vivo at 50 mg/kg [1, 4]: -26%; inhibition in vivo at 50 mg/kg [3, 5]: 46% |
| CCCCCCCCCCNC(=O)N(O)CCCC(=O)OCC [Example 19, N-Decyl-N'-[3-(ethoxycarbonyl)propyl]-N'-hydroxyurea] | – | – | 183 | 60 | – | 94 | – | inhibition in vivo at 50 mg/kg [1, 4]: -89%; inhibition in vivo at 50 mg/kg [3, 5]: 0% |
| CCCCCN1CCN(O)C1=O [Example 23, 1-pentyl-3-hydroxyimidazolidin-2-one] | 97 | > 10000 | – | – | 52 | – | 29 | – |
| COc1ccc(CC(C)(C)NC(=O)N(C)O)cc1OC [Example 56, N-[2-(3,4-Dimethoxyphenyl)-1,1-dimethylethyl]-N'hydroxy-N'-methylurea] | – | – | – | – | – | 3 | – | inhibition in vivo at 0.1 mg [2]: 38% |
| CCCCCCCCCCCN(O)C(=O)N(C)C [Example 12, N,N-Dimethyl-N'-undecyl-N'-hydroxyurea] | – | – | 65 | – | – | 100 | 94 | inhibition in vivo at 50 mg/kg [1, 4]: -9%; inhibition in vivo at 50 mg/kg [3, 5]: 40% |
| COc1cc2c(cc1OC)CCN(C(=O)N(C)O)CC2 [Example 62, 7,8-Dimethoxy-N-hydroxy-N-methyl-1,2,4,5-tetrahydro-3H-3-benzazepine-3-carboxamide] | – | – | – | – | – | 0 | 35 | – |
| CCCCCCCCCCNC(=O)N(C)O [Example 16, N-Decyl-N'-methyl-N'-hydroxyurea] | 55 | 210 | 28 | 73 | 58 | – | – | inhibition in vivo at 100 mg/kg ([1]; ID dosing, 100 mg/kg, read-out: Inhibition of Arachidonate-Induced Bronchospasm (ID Dosing), % Inh. without Indomethacin): < 20%; inhibition in vivo at 100 mg/kg ([3]; ID dosing, 100 mg/kg, read-out: Inhibition of Arachidonate-Induced Bronchospasm (ID Dosing), % Inh. with Indomethacin): 35% |
| COc1ccc(CCNC(=O)N(OC(C)=O)C(C)(C)C)cc1OC [Example 52, N-[2-(3,4-Dimethoxyphenyl)ethyl]-N'-acetoxy-N'-t-butylurea] | – | – | – | – | – | 9 | – | inhibition in vivo at 0.1 mg [2]: 69% |
| COc1cc2c(cc1OC)CN(C(=O)N(C)O)CC2 [Example 51, 6,7-Dimethoxy-N-hydroxy-N-methyl-1,2,3,4-tetrahydroisoquinoline-2-carboxamide] | < 20 | – | – | – | 60 | 24 | – | inhibition in vivo at 0.1 mg [2]: 28% |
| CCCCCCCCCC(C)(C)NC(=O)N(C)O [Example 20, N-(1,1-Dimethyldecyl)-N'-methyl-N'-hydroxyurea] | – | – | – | – | – | 65 | – | inhibition in vivo at 0.1 mg [2]: 47% |
| CCCCCCCCCCN(O)C(=O)NCCCC(=O)OC [Example 5, N-[3-(Methoxycarbonyl)propyl]-N'-decyl-N'-hydroxyurea] | < 20 | – | – | 49 | 37 | 100 | – | – |
| CCCCCCCCN1CCN(O)C1=O [Example 24, 1-Octyl-3-hydroxyimidazolidin-2-one] | – | 5200 | – | – | – | – | 27 | – |
| CN(O)C(=O)NCCCCCCCOCc1ccccc1 [Example 39, N-[7-(Benzyloxy)heptyl]-N'hydroxy-N'-methylurea] | – | – | 31 | – | – | 100 | 70 | – |
| CCCCCCCCCN(O)C(=O)N(C)C [Example 8, N,N-Dimethyl-N'-nonyl-N'-hydroxyurea] | – | – | – | – | – | 93 | 95 | – |
| CCCCCCCCCCC1CN(O)C(=O)N1C (stereo not drawn) [Example 28, 4-Decyl-1-hydroxy-3-methylimidazolidin-2-one] | – | 280 | 134 | 85 | – | 96 | – | – |
